The values below are quoted from earlier work in patent US20070048371A1, “Pharmaceutical formulations/composition of guanfacine suitable for single dose form administration daily” (priority 2005, published 2007).

Structures are written as SMILES. Counter-ions that a name gives are not always drawn.

For this series the following is noted: white to off-white powder; cited from earlier work.

Take `N=C(N)NC(=O)Cc1c(Cl)cccc1Cl` [Guanfacine hydrochloride, N-amidino-2-(2,6-dichlorophenyl) acetamide hydrochloride]: the solubility in acetone result is recorded as “slightly soluble”; the “solubility in water and alcohol” value was “sparingly soluble”.
